The values below come from patent US20260297081A1, “COMPOUNDS AND METHODS OF TREATING CANCERS” (Cullgen Inc., priority 2023, published 2026).

The target in the test is CDK4 (Homo sapiens, UniProt P11802+Q16531). The test can be described thus: CDK4 percentage degradation in Calu-1 cells (Table 6). It counts as cell-based. The following applies: 16 hours; for inhibition at 0.04 µM: 40 nM; for inhibition at 0.2 µM: 200 nM. Further details: Cells that express cyclin D1-3 and CDK4/6 proteins were treated with heterobifunctional compounds; endogenous in cells; host or cells: Calu-1. The gist of the method: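 Calu-1 cells exposed to heterobifunctional compounds at 40 nM or 200 nM for 16 h. Cyclin D1 and CDK4 levels measured by Western blot of RIPA lysates (BCA-normalised loading), bands quantified by densitometry and expressed as percentage degradation.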
CDK4, sequence (P11802 2-303 limits assumed): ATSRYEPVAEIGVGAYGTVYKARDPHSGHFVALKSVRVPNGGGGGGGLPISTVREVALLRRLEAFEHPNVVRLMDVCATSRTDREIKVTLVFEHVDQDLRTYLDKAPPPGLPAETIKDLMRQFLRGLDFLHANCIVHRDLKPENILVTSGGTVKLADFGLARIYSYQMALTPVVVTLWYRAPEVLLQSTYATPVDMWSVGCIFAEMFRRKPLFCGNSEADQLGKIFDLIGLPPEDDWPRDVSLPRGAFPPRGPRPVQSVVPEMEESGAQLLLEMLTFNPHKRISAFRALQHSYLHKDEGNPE
CDK4, sequence (P24385 whole entry partner): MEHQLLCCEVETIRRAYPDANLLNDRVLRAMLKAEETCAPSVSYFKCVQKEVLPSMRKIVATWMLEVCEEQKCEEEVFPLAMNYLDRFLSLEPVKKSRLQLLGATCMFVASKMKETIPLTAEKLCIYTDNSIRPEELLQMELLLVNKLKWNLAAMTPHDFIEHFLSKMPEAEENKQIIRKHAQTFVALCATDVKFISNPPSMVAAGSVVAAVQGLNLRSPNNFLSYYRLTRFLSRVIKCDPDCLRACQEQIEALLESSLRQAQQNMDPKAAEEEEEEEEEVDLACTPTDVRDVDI
CDK4, sequence (Q16531 2-1140 limits assumed): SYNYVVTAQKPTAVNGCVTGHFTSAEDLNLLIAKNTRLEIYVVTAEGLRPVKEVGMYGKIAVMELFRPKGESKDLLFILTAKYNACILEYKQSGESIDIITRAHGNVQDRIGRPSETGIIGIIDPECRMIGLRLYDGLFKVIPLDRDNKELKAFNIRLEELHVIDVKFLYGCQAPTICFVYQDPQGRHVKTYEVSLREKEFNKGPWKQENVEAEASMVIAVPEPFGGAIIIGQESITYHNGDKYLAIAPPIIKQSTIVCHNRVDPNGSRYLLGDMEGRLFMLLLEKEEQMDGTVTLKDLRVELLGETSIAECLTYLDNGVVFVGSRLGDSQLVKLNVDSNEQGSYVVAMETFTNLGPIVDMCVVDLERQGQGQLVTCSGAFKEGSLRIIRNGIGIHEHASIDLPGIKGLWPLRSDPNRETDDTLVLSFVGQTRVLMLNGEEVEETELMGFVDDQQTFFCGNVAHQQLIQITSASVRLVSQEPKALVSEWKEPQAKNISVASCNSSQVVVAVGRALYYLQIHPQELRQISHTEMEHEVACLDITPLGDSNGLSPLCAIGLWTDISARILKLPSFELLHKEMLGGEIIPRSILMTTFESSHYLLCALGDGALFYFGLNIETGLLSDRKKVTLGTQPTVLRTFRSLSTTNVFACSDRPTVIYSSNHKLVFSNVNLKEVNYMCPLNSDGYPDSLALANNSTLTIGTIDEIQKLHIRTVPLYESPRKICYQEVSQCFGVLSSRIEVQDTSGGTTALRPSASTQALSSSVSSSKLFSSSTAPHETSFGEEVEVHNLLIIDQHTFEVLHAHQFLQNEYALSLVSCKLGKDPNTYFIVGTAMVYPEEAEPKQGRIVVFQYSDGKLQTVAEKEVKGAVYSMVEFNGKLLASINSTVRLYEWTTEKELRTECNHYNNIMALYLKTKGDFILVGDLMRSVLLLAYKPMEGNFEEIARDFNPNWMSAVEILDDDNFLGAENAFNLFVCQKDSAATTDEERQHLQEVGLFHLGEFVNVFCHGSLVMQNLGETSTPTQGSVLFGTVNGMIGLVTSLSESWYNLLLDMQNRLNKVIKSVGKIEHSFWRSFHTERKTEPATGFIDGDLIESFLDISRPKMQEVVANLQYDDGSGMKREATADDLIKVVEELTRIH

A value given as a limit tells only on which side of the number the result lay.

`CC(=O)c1c(C)c2cnc(Nc3ccc(N4CCN(CC(=O)NC5CC6(C5)CC(Nc5nc(C#N)ccc5C(=O)Nc5cccc(C7CC7)n5)C6)CC4)cn3)nc2n(C2CCCC2)c1=O` (stereo not shown) [CPD-141, 2-((6-(2-(4-(6-((6-Acetyl-8-cyclopentyl-5-methyl-7-oxo-7,8-dihydropyrido[2,3-d]pyrimidin-2-yl)amino)pyridin-3-yl)piperazin-1-yl)acetamido)spiro[3.3]heptan-2-yl)amino)-6-cyano-N-(6-cyclopropylpyridin-2-yl)nicotinamide] returned an inhibition at 0.04 µM of less than 30% and an inhibition at 0.2 µM of less than 30%. `CNc1ccc(C(=O)Nc2ccc(N(C)C)nn2)c(NC[C@H]2CC[C@H](CCC(=O)N3CCN(c4ccc(Nc5ncc6c(C)c(C(C)=O)c(=O)n(C7CCCC7)c6n5)nc4)CC3)CC2)n1` [CPD-204, 2-(((trans-4-(3-(4-(6-((6-acetyl-8-cyclopentyl-S-methyl-7-oxo-7,8-dihydropyrido[2,3-d]pyrimidin-2-yl)amino)pyridin-3-yl)piperazin-1-yl)-3-oxopropyl)cyclohexyl)methyl)amino)-N-(6-(dimethylamino)pyridazin-3-yl)-6-(methylamino)nicotinamide] yielded an inhibition at 0.04 µM of less than 30% and an inhibition at 0.2 µM of 50 to 80%.

The molecule `CNc1ccc(C(=O)Nc2cccc(C)n2)c(NC[C@H]2CC[C@H](NC(=O)CN3CCN(c4ccc(Nc5ncc6c(C)c(C(C)=O)c(=O)n(C7CCCC7)c6n5)nc4)CC3)CC2)n1` [CPD-126, 2-(((trans-4-(2-(4-(6-((6-Acetyl-8-cyclopentyl-5-methyl-7-oxo-7,8-dihydropyrido[2,3-d]pyrimidin-2-yl)amino)pyridin-3-yl)piperazin-1-yl)acetamido)cyclohexyl)methyl)amino)-6-(methylamino)-N-(6-methylpyridin-2-yl)nicotinamide] came in with an inhibition at 0.04 µM of less than 30% and an inhibition at 0.2 µM of 50 to 80%.

In turn, `CNc1ccc(C(=O)Nc2ccc(Cl)cn2)c(NCCCCCNC(=O)CN2CCN(c3ccc(Nc4ncc5c(C)c(C(C)=O)c(=O)n(C6CCCC6)c5n4)nc3)CC2)n1` [CPD-20, 2-((5-(2-(4-(6-((6-acetyl-8-cyclopentyl-5-methyl-7-oxo-7,8-dihydropyrido[2,3-d]pyrimidin-2-yl)amino)pyridin-3-yl)piperazin-1-yl)acetamido)pentyl)amino)-N-(5-chloropyridin-2-yl)-6-(methylamino)nicotinamide] displayed an inhibition at 0.04 µM of less than 30%. Regarding `CNc1ccc(C(=O)Nc2ccc(N(C)C)nn2)c(NC2CC3(CC(NCCN4CCN(c5ccc(Nc6ncc7c(C)c(C(C)=O)c(=O)n(C8CCCC8)c7n6)nc5)CC4)C3)C2)n1` (stereo not shown) [CPD-96, 2-((6-((2-(4-(6-((6-Acetyl-8-cyclopentyl-5-methyl-7-oxo-7,8-dihydropyrido[2,3-d]pyrimidin-2-yl)amino)pyridin-3-yl)piperazin-1-yl)ethyl)amino)spiro[3.3]heptan-2-yl)amino)-N-(6-(dimethylamino)pyridazin-3-yl)-6-(methylamino)nicotinamide], the inhibition at 0.04 µM is less than 30% and the inhibition at 0.2 µM is less than 30%.

With `CNc1ccc(C(=O)Nc2ccc(C)c(OC)n2)c(NCCCCCNC(=O)CN2CCN(c3ccc(Nc4ncc5c(C)c(C(C)=O)c(=O)n(C6CCCC6)c5n4)nc3)CC2)n1` [CPD-116, 2-((5-(2-(4-(6-((6-Acetyl-8-cyclopentyl-5-methyl-7-oxo-7,8-dihydropyrido[2,3-d]pyrimidin-2-yl)amino)pyridin-3-yl)piperazin-1-yl)acetamido)pentyl)amino)-N-(6-methoxy-5-methylpyridin-2-yl)-6-(methylamino)nicotinamide], the inhibition at 0.04 µM lay in the range of 30 to 50% and the inhibition at 0.2 µM is 30 to 50%. `CNc1ccc(C(=O)Nc2ccc(N(C)C)nn2)c(NC[C@H]2CC[C@@H](NC(=O)CN3CCN(c4ccc(Nc5ncc6c(C)c(C(C)=O)c(=O)n(C7CCCC7)c6n5)nc4)CC3)CC2)n1` [CPD-193, 2-(((cis-4-(2-(4-(6-((6-acetyl-8-cyclopentyl-5-methyl-7-oxo-7,8-dihydropyrido[2,3-d]pyrimidin-2-yl)amino)pyridin-3-yl)piperazin-1-yl)acetamido)cyclohexyl)methyl)amino)-N-(6-(dimethylamino)pyridazin-3-yl)-6-(methylamino)nicotinamide] registered an inhibition at 0.04 µM of 50 to 80% and an inhibition at 0.2 µM of 50 to 80%.

`CNc1ccc(C(=O)Nc2ccc(N(C)C)nc2)c(NCCCCCNC(=O)CN2CCN(c3ccc(Nc4ncc5c(C)c(C(C)=O)c(=O)n(C6CCCC6)c5n4)nc3)CC2)n1` [CPD-58, 2-((5-(2-(4-(6-((6-Acetyl-8-cyclopentyl-5-methyl-7-oxo-7,8-dihydropyrido[2,3-d]pyrimidin-2-yl)amino)pyridin-3-yl)piperazin-1-yl)acetamido)pentyl)amino)-N-(6-(dimethylamino)pyridin-3-yl)-6-(methylamino)nicotinamide] came in with an inhibition at 0.04 µM of 30 to 50% and an inhibition at 0.2 µM of 50 to 80%. As to `CNc1ccc(C(=O)Nc2ccc(N(C)C)cc2)c(NCCCCCNC(=O)CN2CCN(c3ccc(Nc4ncc5c(C)c(C(C)=O)c(=O)n(C6CCCC6)c5n4)nc3)CC2)n1` [CPD-46, 2-((5-(2-(4-(6-((6-Acetyl-8-cyclopentyl-5-methyl-7-oxo-7,8-dihydropyrido[2,3-d]pyrimidin-2-yl)amino)pyridin-3-yl)piperazin-1-yl)acetamido)pentyl)amino)-N-(4-(dimethylamino)phenyl)-6-(methylamino)nicotinamide], the inhibition at 0.04 µM is less than 30% and the inhibition at 0.2 µM was less than 30%. Consider `[2H]C([2H])([2H])Nc1ccc(C(=O)Nc2ccc(N(C)C)nn2)c(NC2CC3(C2)CN(C(=O)C(F)(F)CN2CCN(c4ccc(Nc5ncc6c(C)c(C(C)=O)c(=O)n(C7CCCC7)c6n5)nc4)CC2)C3)n1` [CPD-249, 2-((2-(3-(4-(6-((6-acetyl-8-cyclopentyl-5-methyl-7-oxo-7,8-dihydropyrido[2,3-d]pyrimidin-2-yl)amino)pyridin-3-yl)piperazin-1-yl)-2,2-difluoropropanoyl)-2-azaspiro[3.3]heptan-6-yl)amino)-N-(6-(dimethylamino)pyridazin-3-yl)-6-((methyl-d3)amino)nicotinamide], for which the inhibition at 0.04 µM was 50 to 80% and the inhibition at 0.2 µM fell in the range of 50 to 80%.

`CNc1ccc(C(=O)Nc2ccn(C)n2)c(NC2CC3(CC(NC(=O)CN4CCN(c5ccc(Nc6ncc7c(C)c(C(C)=O)c(=O)n(C8CCCC8)c7n6)nc5)CC4)C3)C2)n1` (stereo not shown) [CPD-93, 2-((6-(2-(4-(6-((6-Acetyl-8-cyclopentyl-5-methyl-7-oxo-7,8-dihydropyrido[2,3-d]pyrimidin-2-yl)amino)pyridin-3-yl)piperazin-1-yl)acetamido)spiro[3.3]heptan-2-yl)amino)-N-(1-methyl-1H-pyrazol-3-yl)-6-(methylamino)nicotinamide] had an inhibition at 0.04 µM of 30 to 50% and an inhibition at 0.2 µM of 50 to 80%. Consider `CNc1ccc(C(=O)Nc2ccc(N(C)C)c(C3CC3)n2)c(NC2CC3(CC(NC(=O)CN4CCN(c5ccc(Nc6ncc7c(C)c(C(C)=O)c(=O)n(C8CCCC8)c7n6)nc5)CC4)C3)C2)n1` (stereo not shown) [CPD-177, 2-((6-(2-(4-(6-((6-acetyl-8-cyclopentyl-5-methyl-7-oxo-7,8-dihydropyrido[2,3-d]pyrimidin-2-yl)amino)pyridin-3-yl)piperazin-1-yl)acetamido)spiro[3.3]heptan-2-yl)amino)-N-(6-cyclopropyl-5-(dimethylamino)pyridin-2-yl)-6-(methylamino)nicotinamide], for which the inhibition at 0.04 µM is less than 30% and the inhibition at 0.2 µM fell in the range of 50 to 80%. In the same order, the values of `CNc1ccc(C(=O)Nc2ccc3c(n2)CCC3)c(NC2CC3(CC(NC(=O)CN4CCN(c5ccc(Nc6ncc7c(C)c(C(C)=O)c(=O)n(C8CCCC8)c7n6)nc5)CC4)C3)C2)n1` (stereo not shown) [CPD-69, 2-((6-(2-(4-(6-((6-Acetyl-8-cyclopentyl-5-methyl-7-oxo-7,8-dihydropyrido[2,3-d]pyrimidin-2-yl)amino)pyridin-3-yl)piperazin-1-yl)acetamido)spiro[3.3]heptan-2-yl)amino)-N-(6,7-dihydro-5H-cyclopenta[b]pyridin-2-yl)-6-(methylamino)nicotinamide] are 30 to 50% and 50 to 80%.

`CNc1ccc(C(=O)Nc2cccc(C3CC3)n2)c(NC[C@H]2CC[C@H](NC(=O)CN3CCN(c4ccc(Nc5ncc6c(C)c(C(C)=O)c(=O)n(C7CCCC7)c6n5)nc4)CC3)CC2)n1` [CPD-154, 2-(((trans-4-(2-(4-(6-((6-acetyl-8-cyclopentyl-5-methyl-7-oxo-7,8-dihydropyrido[2,3-d]pyrimidin-2-yl)amino)pyridin-3-yl)piperazin-1-yl)acetamido)cyclohexyl)methyl)amino)-N-(6-cyclopropylpyridin-2-yl)-6-(methylamino)nicotinamide]: the inhibition at 0.04 µM is less than 30% and the inhibition at 0.2 µM was less than 30%. Turning to `CNc1ccc(C(=O)Nc2ncc(C)o2)c(NC2CC3(CC(NC(=O)CN4CCN(c5ccc(Nc6ncc7c(C)c(C(C)=O)c(=O)n(C8CCCC8)c7n6)nc5)CC4)C3)C2)n1` (stereo not shown) [CPD-246, 2-((6-(2-(4-(6-((6-acetyl-8-cyclopentyl-5-methyl-7-oxo-7,8-dihydropyrido[2,3-d]pyrimidin-2-yl)amino)pyridin-3-yl)piperazin-1-yl)acetamido)spiro[3.3]heptan-2-yl)amino)-6-(methylamino)-N-(5-methyloxazol-2-yl)nicotinamide], the inhibition at 0.04 µM lay within 50 to 80% and the inhibition at 0.2 µM fell in the range of 50 to 80%.

Molecule `CNc1ccc(C(=O)Nc2ccc3c(n2)CCC3)c(NCCCCCNC(=O)CN2CCN(c3ccc(Nc4ncc5c(C)c(C(C)=O)c(=O)n(C6CCCC6)c5n4)nc3)CC2)n1` [CPD-40, 2-((5-(2-(4-(6-((6-Acetyl-8-cyclopentyl-5-methyl-7-oxo-7,8-dihydropyrido[2,3-d]pyrimidin-2-yl)amino)pyridin-3-yl)piperazin-1-yl)acetamido)pentyl)amino)-N-(6,7-dihydro-5H-cyclopenta[b]pyridin-2-yl)-6-(methylamino)nicotinamide] returned an inhibition at 0.04 µM of 50 to 80% and an inhibition at 0.2 µM of 50 to 80%.
